Among the data in patent US8198299B2, “Cycloalkylidene and heterocycloalkylidene inhibitor compounds” (Gilead Sciences, Inc., priority 2008, dated 2012) are IC50 values, retold here.

Molecules are shown by their SMILES.

As a reminder, the IC50 is the midpoint of a concentration-inhibition curve.

Chain of HDAC 1 (Q13547 whole entry, species assumed): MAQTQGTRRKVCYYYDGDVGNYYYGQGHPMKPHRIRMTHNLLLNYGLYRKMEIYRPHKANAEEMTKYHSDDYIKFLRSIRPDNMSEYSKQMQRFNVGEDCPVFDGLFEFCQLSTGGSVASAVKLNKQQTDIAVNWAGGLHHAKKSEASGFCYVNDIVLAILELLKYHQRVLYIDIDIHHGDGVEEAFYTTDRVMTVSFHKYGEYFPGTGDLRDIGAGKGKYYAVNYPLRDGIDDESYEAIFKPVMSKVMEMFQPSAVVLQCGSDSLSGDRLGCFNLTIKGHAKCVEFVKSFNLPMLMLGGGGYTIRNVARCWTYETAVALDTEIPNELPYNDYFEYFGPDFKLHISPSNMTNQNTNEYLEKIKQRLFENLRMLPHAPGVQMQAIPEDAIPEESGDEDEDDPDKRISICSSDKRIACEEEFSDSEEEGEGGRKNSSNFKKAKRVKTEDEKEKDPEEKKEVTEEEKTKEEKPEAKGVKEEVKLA

The assay has as its target HDAC 1 (Homo sapiens, UniProt Q13547). The assay can be described thus: HDAC 1 inhibition assay with about 3-hour enzyme/compound preincubation (fluorophore/quencher peptide substrate). The settings on record: 3-hour preincubation of enzyme and compound at room temperature; read-out: HDAC 1 inhibitory activity (IC50 [μM]) (3-hour preincubation). Format: biochemical. Here is the method: HDAC inhibitory activity of the compound of Example 1 was measured by two types of assays in which HDAC 1 and 6 were used as a target molecule. The first assay was carried out without preincubation after addition of the enzyme. The test compound was suspended in and titrated in DMSO. It was then spotted into a 384-well test plate. The enzyme, HDAC 1 or 6, was diluted in assay buffer containing 25 mM Tris-HCl (pH 8.0), 137 mM NaCl, 2.7 mM KCl, and 0.01% Tween-20 and added to the pre-spotted compound. The peptide substrate containing a fluorophore/quencher pair was diluted in the same assay buffer and added to the compound/enzyme mix initiating the reaction. The reaction incubated at room temperature for about 45 minutes. A concentrated developer solution was diluted in the assay buffer, and added to the reaction. The reaction was incubated at room temperature for about 15 minutes and relative fluorescence was read on an instrument reader.
The second assay is similar to the first assay described above, except that preincubation is carried out for about 3 hours after the enzyme is introduced. The test compound was suspended in, and titrated in DMSO. It was then spotted into a 384-well test plate. The enzyme, HDAC 1 or 6, was diluted in the same assay buffer as used in the previous assay and added to the pre-spotted compound. The enzyme/compound mix was incubated at room temperature for about 3 hours. The peptide substrate containing a fluorophore/quencher pair was diluted in the assay buffer and added to the compound/enzyme mix initiating the reaction. The reaction incubated at room temperature for 45 minutes. A concentrated developer solution was diluted in the assay buffer, and added to the reaction. The reaction was incubated at room temperature for about 15 minutes and relative fluorescence was read on an instrument reader.
Consider `Cc1nc2ccccn2c1-c1csc(C2(c3ccc(C(=O)Nc4ccccc4N)cc3)CC2)n1` [Example 1, N-(2-amino-phenyl)-4-{1-[4-(2-methyl-imidazo[1,2-a]pyridin-3-yl)-thiazol-2-yl]-cyclopropyl}-benzamide], for which the IC50 is 0.0239 µM. To `Cc1nc2ccccn2c1-c1csc(C2(c3ccc(C(=O)NO)cc3)CC2)n1` [Example 2, N-hydroxy-4-{1-[4-(2-methyl-imidazo[1,2-a]pyridin-3-yl)-thiazol-2-yl]-cyclopropyl}-benzamide] belongs 0.024 µM. For `CC(=O)c1sc(C2(c3ccc(C(=O)Nc4ccccc4N)cc3)CC2)nc1C` [Example 3, 4-[1-(5-Acetyl-4-methyl-thiazol-2-yl)-cyclopropyl]-N-(2-amino-phenyl)-benzamide], the IC50 is 0.065 µM.

Consider `Cc1nc(C2(c3ccc(C(=O)Nc4ccccc4N)cc3)CC2)sc1C(=O)N(C)C` [Example 4, 2-(1-(4-(2-aminophenylcarbamoyl)phenyl)cyclopropyl)-N,N-4-trimethylthiazole-5-carboxamide], for which the IC50 was found to be 0.331 µM.

`Nc1ccccc1NC(=O)c1ccc(C2(c3nc(-c4cccnc4)cs3)CC2)cc1` [Example 5, N-(2-Amino-phenyl)-4-[1-(4-pyridin-3-yl-thiazol-2-yl)-cyclopropyl]-benzamide]: the IC50 turned out to be 0.012 µM. To `Nc1ccccc1NC(=O)c1ccc(C2(c3nc(-c4cccnc4)cs3)CCCC2)cc1` [Example 6, N-(2-Amino-phenyl)-4-[1-(4-pyridin-3-yl-thiazol-2-yl)-cyclopentyl]-benzamide] belongs 0.012 µM; to `Cc1nc2ccccn2c1-c1csc(C2(c3ccc(C(=O)Nc4ccccc4N)cc3)CCCC2)n1` [Example 7], 0.008 µM; to `Nc1ccccc1NC(=O)c1ccc(C2(c3nc(-c4cccnc4)cs3)CCOCC2)cc1` [Example 8, N-(2-Amino-phenyl)-4-[4-(4-pyridin-3-yl-thiazol-2-yl)-tetrahydro-pyran-4-yl]-benzamide], 0.037 µM. To `Cc1nc2ccccn2c1-c1csc(C2(c3ccc(C(=O)Nc4ccccc4N)cc3)CCOCC2)n1` [Example 9, N-(2-Amino-phenyl)-4-{4-[4-(2-methyl-imidazo[1,2-a]pyridin-3-yl)-thiazol-2-yl]-tetrahydro-pyran-4-yl}-benzamide] belongs 0.003 µM; to `CC(C)NC(=O)c1csc(C2(c3ccc(C(=O)Nc4ccccc4N)cc3)CC2)n1` [Example 10, 2-(1-(4-(2-aminophenylcarbamoyl)phenyl)cyclopropyl)-N-isopropylthiazole-4-carboxamide], 0.279 µM.

Turning to `Nc1ccccc1NC(=O)c1ccc(C2(c3nc4c(s3)CCCC4)CC2)cc1` [Example 11, N-(2-amino-phenyl)-4-[1-(4,5,6,7-tetrahydro-benzothiazol-2-yl)-cyclopropyl]-benzamide], the IC50 was found to be 0.069 µM. To `CCOC(=O)N1CCc2nc(C3(c4ccc(C(=O)Nc5ccccc5N)cc4)CC3)sc2C1` [Example 12] belongs 0.016 µM. Consider `Nc1ccccc1NC(=O)c1ccc(C2(c3nccs3)CCOCC2)cc1` [Example 15], for which the IC50 turned out to be 0.119 µM.

On to `Cc1csc(C2(c3ccc(C(=O)Nc4ccccc4N)cc3)CC2)n1` [Example 16, N-(2-aminophenyl)-4-(1-(4-methylthiazol-2-yl)cyclopropyl)benzamide], for which the IC50 came to 0.0988 µM. In the case of `CC(C)[C@H](N)C(=O)N1CCc2nc(C3(c4ccc(C(=O)Nc5ccccc5N)cc4)CC3)sc2C1` [Example 17, (S)-4-(1-(5-(2-amino-3-methylbutanoyl)-4,5,6,7-tetrahydrothiazolo[5,4-c]pyridin-2-yl)cyclopropyl)-N-(2-aminophenyl)benzamide] it was 0.0982 µM; in that of `Nc1ccccc1NC(=O)c1ccc(C2(c3nc(-c4ccc(Cl)nc4)cs3)CCOCC2)cc1` [Example 18, N-(2-aminophenyl)-4-(4-(4-(6-chloropyridin-3-yl)thiazol-2-yl)tetrahydropyran-4-yl)benzamide], 0.0139 µM. For `Nc1ccc(F)cc1NC(=O)c1ccc(C2(c3nc(-c4cccnc4)cs3)CC2)cc1` [Example 19, N-(2-Amino-5-fluoro-phenyl)-4-[1-(4-pyridin-3-yl-thiazol-2-yl)-cyclopropyl]-benzamide], the IC50 is 0.0518 µM. To `Nc1ccccc1NC(=O)c1ccc(C2(c3nc(-c4ccc(N5CCCC5)nc4)cs3)CCOCC2)cc1` [Example 20, N-(2-aminophenyl)-4-(4-(4-(6-(pyrrolidin-1-yl)pyridin-3-yl)thiazol-2-yl)tetrahydropyran-4-yl)benzamide] belongs 0.019 µM; to `CN1CCc2nc(C3(c4ccc(C(=O)Nc5cc(-c6cccs6)ccc5N)cc4)CCOCC3)sc2C1` [Example 21, N-(2-amino-5-(thiophen-2-yl)phenyl)-4-(4-(5-methyl-4,5,6,7-tetrahydrothiazolo[5,4-c]pyridin-2-yl)tetrahydropyran-4-yl)benzamide], 0.006 µM; to `Nc1ccc(-c2cccs2)cc1NC(=O)c1ccc(C2(c3nc(-c4cccnc4)cs3)CCOCC2)cc1` [Example 22, N-(2-amino-5-(thiophen-2-yl)phenyl)-4-(4-(4-(pyridin-3-yl)thiazol-2-yl)tetrahydropyran-4-yl)benzamide], 0.014 µM. `Nc1ccc(F)cc1NC(=O)c1ccc(C2(c3nc(-c4cccnc4)cs3)CCOCC2)cc1` [Example 23, N-(2-amino-5-fluorophenyl)-4-(4-(4-(pyridin-3-yl)thiazol-2-yl)tetrahydropyran-4-yl)benzamide]: the IC50 worked out at 0.032 µM. As to `COCCOc1ccc(-c2csc(C3(c4ccc(C(=O)Nc5ccccc5N)cc4)CCOCC3)n2)cn1` [Example 24, N-(2-aminophenyl)-4-(4-(4-(6-(2-methoxyethoxy)pyridin-3-yl)thiazol-2-yl)tetrahydropyran-4-yl)benzamide], the IC50 came out at 0.013 µM.

For the molecule `CN1CCN(c2ccc(-c3csc(C4(c5ccc(C(=O)Nc6ccccc6N)cc5)CCOCC4)n3)cn2)CC1` [Example 25, N-(2-aminophenyl)-4-(4-(4-(6-(4-methylpiperazin-1-yl)pyridin-3-yl)thiazol-2-yl)tetrahydropyran-4-yl)benzamide], the concentration for half-maximal inhibition (IC50) came to 0.006 µM. In the case of `Nc1ccccc1NC(=O)c1ccc(C2(c3nc4c(s3)COCC4)CCOCC2)cc1` [Example 26, N-(2-aminophenyl)-4-(4-(6,7-dihydropyrano[4,3-d]thiazol-2-yl)tetrahydropyran-4-yl)benzamide] it was 0.017 µM; in that of `CC(=O)N1CCc2nc(C3(c4ccc(C(=O)Nc5ccccc5N)cc4)CCOCC3)sc2C1` [Example 27, 4-(4-(5-acetyl-4,5,6,7-tetrahydrothiazolo[5,4-c]pyridin-2-yl)tetrahydropyran-4-yl)-N-(2-aminophenyl)benzamide], 0.019 µM; in that of `CC(=O)N1CCc2nc(C3(c4ccc(C(=O)Nc5cc(-c6cccs6)ccc5N)cc4)CCOCC3)sc2C1` [Example 28, 4-(4-(5-acetyl-4,5,6,7-tetrahydrothiazolo[5,4-c]pyridin-2-yl)tetrahydropyran-4-yl)-N-(2-amino-5-(thiophen-2-yl)phenyl)benzamide], 0.0026 µM. In the case of `CN1CCc2nc(C3(c4ccc(C(=O)Nc5ccccc5N)cc4)CCOCC3)sc2C1` [Example 29, N-(2-aminophenyl)-4-(4-(5-methyl-4,5,6,7-tetrahydrothiazolo[5,4-c]pyridin-2-yl)tetrahydropyran-4-yl)benzamide] it was 0.032 µM; in that of `CN1CCc2nc(C3(c4ccc(C(=O)Nc5cc(F)ccc5N)cc4)CCOCC3)sc2C1` [Example 30, N-(2-amino-5-fluorophenyl)-4-(4-(5-methyl-4,5,6,7-tetrahydrothiazolo[5,4-c]pyridin-2-yl)tetrahydropyran-4-yl)benzamide], 0.067 µM; in that of `Nc1ccc(-c2cccs2)cc1NC(=O)c1ccc(C2(c3nc(CN4CCCC4)cs3)CCOCC2)cc1` [Example 31, N-(2-amino-5-(thiophen-2-yl)phenyl)-4-(4-(4-(pyrrolidin-1-ylmethyl)thiazol-2-yl)tetrahydropyran-4-yl)benzamide], 0.001 µM. In the case of `COCCOCc1csc(C2(c3ccc(C(=O)Nc4cc(-c5cccs5)ccc4N)cc3)CCOCC2)n1` [Example 32, N-(2-amino-5-(thiophen-2-yl)phenyl)-4-(4-(4-((2-methoxyethoxy)methyl)thiazol-2-yl)tetrahydropyran-4-yl)benzamide] it was 0.0025 µM; in that of `Nc1ccc(-c2cccs2)cc1NC(=O)c1ccc(C2(c3nc(CN4CCOCC4)cs3)CCOCC2)cc1` [Example 33, N-(2-amino-5-(thiophen-2-yl)phenyl)-4-(4-(4-(morpholinomethyl)thiazol-2-yl)tetrahydropyran-4-yl)benzamide], 0.0029 µM; in that of `Nc1ccccc1NC(=O)c1ccc(C2(c3nc(-c4ccc(N5CCN(C6CC6)CC5)nc4)cs3)CCOCC2)cc1` [Example 34, N-(2-aminophenyl)-4-(4-(4-(6-(4-cyclopropylpiperazin-1-yl)pyridin-3-yl)thiazol-2-yl)tetrahydropyran-4-yl)benzamide], 0.0066 µM.
